≈ marks a conversion by molar mass, not a printed value.
Assays:
Rattus norvegicus [1] = assay: Anti-inflammatory activity in Rattus norvegicus Wistar (rat) assessed as protection against carrageenan-induced paw edema at 20 mg/kg, po measured at 30 min by plethysmographic analysis (reference value: 4 +/- 0.28%); format: functional
Mus musculus [2] = assay: Analgesic activity in Mus musculus […] albino (mouse) at 10 mg/kg, po measured at 2 hr by tail flick test (reference value: 6 +/- 0.84%)
Rattus norvegicus [3] = assay: Anti-inflammatory activity in Rattus norvegicus Wistar (rat) assessed as protection against carrageenan-induced paw edema at 20 mg/kg, po measured at 1 hr by plethysmographic analysis (reference value: 6 +/- 0.63%); format: functional
Mus musculus [4] = assay: Analgesic activity in Mus musculus […] albino (mouse) at 20 mg/kg, po measured at 2 hr by tail flick test (reference value: 6 +/- 0.84%)
Rattus norvegicus [5] = assay: Anti-inflammatory activity in Rattus norvegicus Wistar (rat) assessed as protection against carrageenan-induced paw edema at 20 mg/kg, po measured at 2 hr by plethysmographic analysis (reference value: 5 +/- 0.41%); format: functional
Mus musculus [6] = assay: Analgesic activity in Mus musculus […] albino (mouse) at 20 mg/kg, po measured at 1 hr by tail flick test (reference value: 5 +/- 0.49%)
Staphylococcus aureus = assay: Antibacterial activity against Staphylococcus aureus ATCC 9144 assessed as growth inhibition after 24 hr by agar streak dilution method; format: functional; conditions: ATCC 9144, 24 h
Rattus norvegicus [7] = assay: Anti-inflammatory activity in Rattus norvegicus Wistar (rat) assessed as protection against carrageenan-induced paw edema at 10 mg/kg, po measured at 30 min by plethysmographic analysis (reference value: 4 +/- 0.28%); format: functional
Rattus norvegicus [8] = assay: Ulcerogenecity in Rattus norvegicus Wistar albino (rat) stomach assessed as ulcer index administered 20 mg/kg, ip qd for 3 days measured on day 4 relative to aspirin; format: ADME, organism-based; set-up: dose 20 mg/kg, route intraperitoneal; conditions: in vivo, 72 h
Micrococcus luteus = assay: Antibacterial activity against Micrococcus luteus ATCC 4698 assessed as growth inhibition after 24 hr by agar streak dilution method; format: functional; conditions: ATCC 4698, 24 h
Rattus norvegicus [9] = assay: Anti-inflammatory activity in Rattus norvegicus Wistar (rat) assessed as protection against carrageenan-induced paw edema at 10 mg/kg, po measured at 3 hr by plethysmographic analysis (reference value: 4 +/- 0.75%); format: functional
Klebsiella pneumoniae = assay: Antibacterial activity against Klebsiella pneumoniae ATCC 11298 assessed as growth inhibition after 24 hr by agar streak dilution method; format: functional; conditions: ATCC 11298, 24 h
Rattus norvegicus [10] = assay: Ulcerogenecity in Rattus norvegicus Wistar albino (rat) stomach assessed as ulcer index administered 20 mg/kg, ip qd for 3 days measured on day 4 (reference value: 0.13 +/- 0.05 no unit); format: ADME, organism-based; set-up: dose 20 mg/kg, route intraperitoneal; conditions: in vivo, 72 h
Mus musculus [11] = assay: Analgesic activity in Mus musculus […] albino (mouse) at 10 mg/kg, po measured at 30 min by tail flick test (reference value: 4 +/- 0.72%)
Bacillus cereus = assay: Antibacterial activity against Bacillus cereus ATCC 11778 assessed as growth inhibition after 24 hr by agar streak dilution method; format: functional; conditions: ATCC 11778, 24 h
Rattus norvegicus [12] = assay: Anti-inflammatory activity in Rattus norvegicus Wistar (rat) assessed as protection against carrageenan-induced paw edema at 10 mg/kg, po measured at 2 hr by plethysmographic analysis (reference value: 5 +/- 0.41%); format: functional
Rattus norvegicus [13] = assay: Anti-inflammatory activity in Rattus norvegicus Wistar (rat) assessed as protection against carrageenan-induced paw edema at 20 mg/kg, po measured at 3 hr by plethysmographic analysis (reference value: 4 +/- 0.75%); format: functional
Escherichia coli = assay: Antibacterial activity against Escherichia coli ATCC 25922 assessed as growth inhibition after 24 hr by agar streak dilution method; format: functional; conditions: ATCC 25922, 24 h
Pseudomonas aeruginosa = assay: Antibacterial activity against Pseudomonas aeruginosa […] assessed as growth inhibition after 24 hr by agar streak dilution method; format: functional
Aspergillus fumigatus = assay: Antifungal activity against Aspergillus fumigatus ATCC 46645 assessed as growth inhibition after 48 hr by agar streak dilution method; format: functional; conditions: ATCC 46645, 48 h
Aspergillus niger = assay: Antifungal activity against Aspergillus niger ATCC 9029 assessed as growth inhibition after 48 hr by agar streak dilution method; format: functional; conditions: ATCC 9029, 48 h
Rattus norvegicus [14] = assay: Anti-inflammatory activity in Rattus norvegicus Wistar (rat) assessed as protection against carrageenan-induced paw edema at 10 mg/kg, po measured at 1 hr by plethysmographic analysis (reference value: 6 +/- 0.63%); format: functional
Rattus norvegicus [15] = assay: Ulcerogenecity in Rattus norvegicus Wistar albino (rat) stomach assessed as ulcer index administered 20 mg/kg, ip qd for 3 days measured on day 4 relative to diclofenac; format: ADME, organism-based; set-up: dose 20 mg/kg, route intraperitoneal; conditions: in vivo, 72 h
Mus musculus [16] = assay: Analgesic activity in Mus musculus […] albino (mouse) at 10 mg/kg, po measured at 3 hr by tail flick test (reference value: 3 +/- 0.41%)
Mus musculus [17] = assay: Analgesic activity in Mus musculus […] albino (mouse) at 20 mg/kg, po measured at 30 min by tail flick test (reference value: 4 +/- 0.72%)
Mus musculus [18] = assay: Analgesic activity in Mus musculus […] albino (mouse) at 20 mg/kg, po measured at 3 hr by tail flick test (reference value: 3 +/- 0.41%)
Mus musculus [19] = assay: Analgesic activity in Mus musculus […] albino (mouse) at 10 mg/kg, po measured at 1 hr by tail flick test (reference value: 5 +/- 0.49%)
[20] = tested on: Staphylococcus epidermidis; assay: Antibacterial activity against Staphylococcus epidermidis ATCC 155 assessed as growth inhibition after 24 hr by agar streak dilution method; format: functional; conditions: ATCC 155, 24 h

Compound | Activity (Rattus norvegicus [1]) | Activity (Mus musculus [2]) | Activity (Rattus norvegicus [3]) | Activity (Mus musculus [4]) | Activity (Rattus norvegicus [5]) | Activity (Mus musculus [6]) | MIC (Staphylococcus aureus) | Activity (Rattus norvegicus [7]) | MIC (Micrococcus luteus) | Activity (Rattus norvegicus [9]) | MIC (Klebsiella pneumoniae) | Activity (Mus musculus [11]) | MIC (Bacillus cereus) | Activity (Rattus norvegicus [12]) | Activity (Rattus norvegicus [13]) | MIC (Escherichia coli) | MIC (Pseudomonas aeruginosa) | MIC (Aspergillus fumigatus) | MIC (Aspergillus niger) | Activity (Rattus norvegicus [14]) | further results
Cc1ccc(/C=N\NCC(=O)Nc2ccc(-n3c(C)nc4ccccc4c3=O)cc2)o1 | 31% | 27% | 35% | 38% | 39% | 33% | 62.5 µg/mL (≈ 150 µM) | 19% | 125 µg/mL (≈ 301 µM) | 23% | 62.5 µg/mL (≈ 150 µM) | 17% | 62.5 µg/mL (≈ 150 µM) | 30% | 30% | 62.5 µg/mL (≈ 150 µM) | 31.2 µg/mL (≈ 75.2 µM) | 62.5 µg/mL (≈ 150 µM) | 125 µg/mL (≈ 301 µM) | 25% | UI (Rattus norvegicus [8]): 31%; UI (Rattus norvegicus [10]): 0.77 no unit; UI (Rattus norvegicus [15]): 34%; Activity (Mus musculus [16]): 19%; Activity (Mus musculus [17]): 29%; Activity (Mus musculus [18]): 21%; Activity (Mus musculus [19]): 24%; MIC [20]: 62.5 µg/mL (≈ 150 µM)
O=C([O-])Cc1ccccc1Nc1c(Cl)cccc1Cl.[Na+] [DICLOFENAC SODIUM] | 40% | 49% | 51% | 64% | 60% | 55% | – | 31% | – | 29% | – | 34% | – | 42% | 43% | – | – | – | – | 36% | Activity (Mus musculus [16]): 32%; Activity (Mus musculus [17]): 47%; Activity (Mus musculus [18]): 41%; Activity (Mus musculus [19]): 44%
COc1ccc(/C=N/NCC(=O)Nc2ccc(-n3c(C)nc4ccccc4c3=O)cc2)cc1 | 31% | 35% | 37% | 48% | 42% | 40% | 125 µg/mL (≈ 283 µM) | 22% | 62.5 µg/mL (≈ 142 µM) | 19% | 31.2 µg/mL (≈ 70.8 µM) | 24% | 62.5 µg/mL (≈ 142 µM) | 29% | 30% | 125 µg/mL (≈ 283 µM) | 62.5 µg/mL (≈ 142 µM) | 62.5 µg/mL (≈ 142 µM) | 62.5 µg/mL (≈ 142 µM) | 25% | UI (Rattus norvegicus [8]): 51%; UI (Rattus norvegicus [10]): 0.86 no unit; UI (Rattus norvegicus [15]): 51%; Activity (Mus musculus [16]): 23%; Activity (Mus musculus [17]): 35%; Activity (Mus musculus [18]): 28%; Activity (Mus musculus [19]): 32%; MIC [20]: 62.5 µg/mL (≈ 142 µM)
Cc1nc2ccccc2c(=O)n1-c1ccc(NC(=O)CN/N=C/c2ccc(Cl)cc2)cc1 | 43% | 48% | 52% | 64% | 59% | 58% | 31.2 µg/mL (≈ 70.1 µM) | 31% | 7.81 µg/mL (≈ 17.5 µM) | 34% | 7.81 µg/mL (≈ 17.5 µM) | 36% | 15.6 µg/mL (≈ 35 µM) | 43% | 42% | 31.2 µg/mL (≈ 70.1 µM) | 15.6 µg/mL (≈ 35 µM) | 7.81 µg/mL (≈ 17.5 µM) | 15.6 µg/mL (≈ 35 µM) | 37% | UI (Rattus norvegicus [8]): 31%; UI (Rattus norvegicus [10]): 0.59 no unit; UI (Rattus norvegicus [15]): 34%; Activity (Mus musculus [16]): 35%; Activity (Mus musculus [17]): 50%; Activity (Mus musculus [18]): 40%; Activity (Mus musculus [19]): 45%; MIC [20]: 15.6 µg/mL (≈ 35 µM)
CC(=O)N1CCN(c2ccc(OCC3COC(Cn4ccnc4)(c4ccc(Cl)cc4Cl)O3)cc2)CC1 (stereo not drawn) [KETOCONAZOLE] | – | – | – | – | – | – | – | – | – | – | – | – | – | – | – | – | – | 7.81 µg/mL (≈ 14.7 µM) | 15.6 µg/mL (≈ 29.4 µM) | – | –
Cc1nc2ccccc2c(=O)n1-c1ccc(NC(=O)CN/N=C\c2c[nH]c3ccccc23)cc1 | 28% | 29% | 36% | 41% | 41% | 35% | 62.5 µg/mL (≈ 139 µM) | 20% | 31.2 µg/mL (≈ 69.4 µM) | 21% | 15.6 µg/mL (≈ 34.7 µM) | 19% | 31.2 µg/mL (≈ 69.4 µM) | 29% | 32% | 62.5 µg/mL (≈ 139 µM) | 15.6 µg/mL (≈ 34.7 µM) | 62.5 µg/mL (≈ 139 µM) | 31.2 µg/mL (≈ 69.4 µM) | 23% | UI (Rattus norvegicus [8]): 31%; UI (Rattus norvegicus [10]): 0.72 no unit; UI (Rattus norvegicus [15]): 34%; Activity (Mus musculus [16]): 18%; Activity (Mus musculus [17]): 30%; Activity (Mus musculus [18]): 20%; Activity (Mus musculus [19]): 25%; MIC [20]: 31.2 µg/mL (≈ 69.4 µM)
Cc1nc2ccccc2c(=O)n1-c1ccc(NC(=O)CN/N=C/c2ccc(O)cc2)cc1 | 30% | 34% | 39% | 47% | 43% | 43% | 125 µg/mL (≈ 292 µM) | 21% | 62.5 µg/mL (≈ 146 µM) | 22% | 125 µg/mL (≈ 292 µM) | 23% | 125 µg/mL (≈ 292 µM) | 28% | 29% | 125 µg/mL (≈ 292 µM) | 125 µg/mL (≈ 292 µM) | 62.5 µg/mL (≈ 146 µM) | 125 µg/mL (≈ 292 µM) | 25% | UI (Rattus norvegicus [8]): 31%; UI (Rattus norvegicus [10]): 0.82 no unit; UI (Rattus norvegicus [15]): 34%; Activity (Mus musculus [16]): 20%; Activity (Mus musculus [17]): 36%; Activity (Mus musculus [18]): 26%; Activity (Mus musculus [19]): 30%; MIC [20]: 125 µg/mL (≈ 292 µM)
Cc1nc2ccccc2c(=O)n1-c1ccc(NC(=O)CN/N=C/c2ccc(C(F)(F)F)cc2)cc1 | 46% | 53% | 57% | 70% | 65% | 63% | 15.6 µg/mL (≈ 32.6 µM) | 35% | 7.81 µg/mL (≈ 16.3 µM) | 39% | 7.81 µg/mL (≈ 16.3 µM) | 40% | 3.9 µg/mL (≈ 8.13 µM) | 46% | 47% | 31.2 µg/mL (≈ 65.2 µM) | 7.81 µg/mL (≈ 16.3 µM) | 15.6 µg/mL (≈ 32.6 µM) | 7.81 µg/mL (≈ 16.3 µM) | 40% | UI (Rattus norvegicus [8]): 32%; UI (Rattus norvegicus [10]): 0.55 no unit; UI (Rattus norvegicus [15]): 32%; Activity (Mus musculus [16]): 39%; Activity (Mus musculus [17]): 53%; Activity (Mus musculus [18]): 45%; Activity (Mus musculus [19]): 48%; MIC [20]: 15.6 µg/mL (≈ 32.6 µM)
O=C(O)c1cn(C2CC2)c2cc(N3CCNCC3)c(F)cc2c1=O [CIPROFLOXACIN] | – | – | – | – | – | – | 15.6 µg/mL (≈ 47.1 µM) | – | 7.81 µg/mL (≈ 23.6 µM) | – | 3.9 µg/mL (≈ 11.8 µM) | – | 7.81 µg/mL (≈ 23.6 µM) | – | – | 15.6 µg/mL (≈ 47.1 µM) | 7.81 µg/mL (≈ 23.6 µM) | – | – | – | MIC [20]: 7.81 µg/mL (≈ 23.6 µM)

Reference: ChEMBL document CHEMBL3044568, “Synthesis, analgesic, anti-inflammatory, and in vitro antimicrobial activities of some novel quinazolin-4(3H)-one derivatives” (Med Chem Res, 2013)
